For 20 molecules, Ki and IC50 results are on record in US20240150293A1, “SPIROCYCLOHEXANE DERIVATIVES, PHARMACEUTICAL COMPOSITIONS CONTAINING THEM AND THEIR USES AS ANTI-APOPTOTIC INHIBITORS” (LES LABORATOIRES SERVIER, priority 2021, published 2024).

Where two headings read alike, the source gives them in different places.

Experiment [1] deals with Cy5-labelled Mcl1 (amino acids 171-321) C286S protein (UniProtKB Q07820) (Homo sapiens (Human), UniProt Q07820, C286S). Nature of the experiment: Inhibition of Mcl-1 by the fluorescence quenching assay (Example A, Method B). In kind it is binding. The procedure, abridged:
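Eleven-point compound series incubated 2 h at room temperature with 1 nM Cy5-tagged protein and quencher-labelled PUMA peptide at 10, 20 or 400 nM in HEPES/NaCl/Tween 20, pH 7.4, 5% DMSO. IC50 for 50% fluorescence increase by 4-parameter fit, then Ki derived (complete cKi or estimated eKi).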

Experiment [2] deals with H929 multiple myeloma tumor line. Nature of the experiment: In vitro cytotoxicity, MTT assay (Example B, Method A). It is filed as cell-based. To be noted: H929 cells, 48 hours exposure, read-out: C50. The procedure: The cytotoxicity studies were carried out on the H929 multiple myeloma tumor line.
The cells are distributed onto microplates and exposed to the test compounds for 48 hours. The cell viability is then quantified by a colorimetric assay, the Microculture Tetrazolium Assay (Carmichael et al, Cancer Res. 1987, 47, 939-942).
The results are expressed in C50 which means concentration corresponding to […] of effect/inhibition.
(Tetrazolium assays rely on reduction of a dye to a coloured formazan, in cell work by metabolically active cells.)

Chain of Cy5-labelled Mcl1 (amino acids 171-321) C286S protein (Q07820 171-321 C286S): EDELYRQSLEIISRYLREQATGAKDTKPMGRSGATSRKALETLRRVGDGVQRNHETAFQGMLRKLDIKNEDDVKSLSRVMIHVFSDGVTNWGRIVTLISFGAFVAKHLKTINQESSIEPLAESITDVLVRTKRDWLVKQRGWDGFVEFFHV

Regarding `CC(O)c1ccc2c(c1)[C@]1(CC[C@@](Nc3cccc(Cl)c3)(C(=O)O)CC1)[C@H](C[C@@H](C)COc1ccnc3ccsc13)C2` (stereo partly drawn) [Example 721, (1r,2′R,4R)-4-(3-chloroanilino)-6′-(1-hydroxyethyl)-2′-{(2R)-2-methyl-3-[(thieno[3,2-b]pyridin-7-yl)oxy]propyl}-2′,3′-dihydrospiro[cyclohexane-1,1′-indene]-4-carboxylic acid], in experiment [1], the Ki worked out at 2.12 nM. Moreover, the IC50 in experiment [2] (Homo sapiens, NCI-H929, 48 h) was 670 nM.

For the molecule `Cc1cc2c(cc1C)[C@]1(CC[C@@](Nc3cccc(Cl)c3)(C(=O)O)CC1)[C@H](C[C@@H](C)COc1ccnc3c1[C@H](C)CCC3)C2` [Example 855, (1r,2′R,4R)-4-(3-chloroanilino)-5′,6′-dimethyl-2′-[(2R)-2-methyl-3-{[(5R)-5-methyl-5,6,7,8-tetrahydroquinolin-4-yl]oxy}propyl]-2′,3′-dihydrospiro[cyclohexane-1,1′-indene]-4-carboxylic acid], in experiment [1], the Ki turned out to be 0.703 nM. Also, the IC50 in experiment [2] (Homo sapiens, NCI-H929, 48 h) turned out to be 50.8 nM.

Regarding `C[C@@H](CNc1ccncc1)C[C@H]1Cc2ccccc2[C@]12CC[C@@](Nc1cccc(Cl)c1)(C(=O)O)CC2` [Example 575, (1r,2′S,4S)-4-(3-chloroanilino)-2′-{(2R)-2-methyl-3-[(pyridin-4-yl)amino]propyl}-2′,3′-dihydrospiro[cyclohexane-1,1′-indene]-4-carboxylic acid], in experiment [1], the Ki worked out at 350 nM. The IC50 in experiment [2] (Homo sapiens, NCI-H929, 48 h) was 16200 nM.

Consider `CC1CCc2nccc(OC[C@H](C)CC3=Cc4ccccc4[C@]34CC[C@@](Nc3cccc(Cl)c3)(C(=O)O)CC4)c21` (single isomer, unassigned) [Example 629], for which the Ki in experiment [1] was found to be 9.55 nM. In addition, in experiment [2], the IC50 was determined as 880 nM.

Turning to `O=C(O)[C@]1(Nc2cccc(Cl)c2)CC[C@@]2(CC1)c1ccccc1CC2CC(COc1ccnc2ccsc12)C(F)F` (stereo partly shown) [Example 511, (1r,4r)-4-(3-chloroanilino)-2′-(3,3-difluoro-2-{[(thieno[3,2-b]pyridin-7-yl)oxy]methyl}propyl)-2′,3′-dihydrospiro[cyclohexane-1,1′-indene]-4-carboxylic acid], the Ki in experiment [1] was 19.9 nM. The IC50 in experiment [2] (Homo sapiens, NCI-H929, 48 h) amounted to 2720 nM.

As for `C[C@@H](COc1ccnc2ccn(C)c12)C[C@H]1Cc2ccccc2[C@]12CC[C@@](Nc1cccc(Cl)c1)(C(=O)O)CC2` [Example 619, (1r,2′S,4S)-4-(3-chloroanilino)-2′-{(2R)-2-methyl-3-[(1-methyl-1H-pyrrolo[3,2-b]pyridin-7-yl)oxy]propyl}-2′,3′-dihydrospiro[cyclohexane-1,1′-indene]-4-carboxylic acid], the Ki in experiment [1] worked out at 9.28 nM. In addition, the IC50 in experiment [2] (Homo sapiens, NCI-H929, 48 h) was 1360 nM.

Consider `C[C@@H](COc1ccnc2c1[C@H](C)C(F)(F)CC2)C[C@H]1Cc2ccccc2[C@]12CC[C@@](Nc1cccc(Cl)c1)(C(=O)O)CC2` [Example 700, (1r,2′S,4S)-4-(3-chloroanilino)-2′-[(2R)-3-{[(5S)-6,6-difluoro-5-methyl-5,6,7,8-tetrahydroquinolin-4-yl]oxy}-2-methylpropyl]-2′,3′-dihydrospiro[cyclohexane-1,1′-indene]-4-carboxylic acid], for which the Ki in experiment [1] worked out at 5.09 nM. The IC50 in experiment [2] (Homo sapiens, NCI-H929, 48 h) was determined as 330 nM.

As for `C[C@@H]1CCCc2nccc(OCC(F)CC3Cc4ccccc4[C@]34CC[C@@](Nc3cccc(Cl)c3)(C(=O)O)CC4)c21` (single isomer, unassigned) [Example 508], the Ki in experiment [1] came to 20.3 nM. In experiment [2], the IC50 was found to be 3640 nM.

Consider `C[C@@H](COc1ccnc2c1[C@H](C)CCC2)CC1Cc2c(F)cccc2[C@]12CC[C@@](Nc1cccc(Cl)c1)(C(=O)O)CC2` (single isomer, unassigned) [Example 742], for which the Ki in experiment [1] turned out to be 1.23 nM. For the same molecule, the IC50 in experiment [2] (Homo sapiens, NCI-H929, 48 h) turned out to be 59.6 nM.

With `C[C@@H](COc1ccncc1C(F)(F)F)C[C@H]1Cc2ccccc2[C@]12CC[C@@](Nc1cccc(Cl)c1)(C(=O)O)CC2` [Example 578, (1r,2′S,4S)-4-(3-chloroanilino)-2′-[(2R)-2-methyl-3-{[3-(trifluoromethyl)pyridin-4-yl]oxy}propyl]-2′,3′-dihydrospiro[cyclohexane-1,1′-indene]-4-carboxylic acid], the Ki in experiment [1] stood at 7.84 nM. In addition, in experiment [2] (Homo sapiens, NCI-H929, 48 h), the IC50 came out at 471 nM.

As for `C[C@@H](COc1ccnc2c1[C@@H](C(F)(F)F)CCC2)C[C@H]1Cc2ccccc2[C@]12CC[C@@](Nc1cccc(Cl)c1)(C(=O)O)CC2` [Example 698, (1r,2′S,4S)-4-(3-chloroanilino)-2′-[(2R)-2-methyl-3-{[(5S)-5-(trifluoromethyl)-5,6,7,8-tetrahydroquinolin-4-yl]oxy}propyl]-2′,3′-dihydrospiro[cyclohexane-1,1′-indene]-4-carboxylic acid], the Ki in experiment [1] stood at 65.6 nM. For the same molecule, in experiment [2] (Homo sapiens, NCI-H929, 48 h), the IC50 amounted to 5430 nM.

With `C[C@@H](COc1ccnc2c1[C@H](C(F)(F)F)CCC2)C[C@H]1Cc2ccccc2[C@]12CC[C@@](Nc1cccc(Cl)c1)(C(=O)O)CC2` [Example 699, (1r,2′S,4S)-4-(3-chloroanilino)-2′-[(2R)-2-methyl-3-{[(5R)-5-(trifluoromethyl)-5,6,7,8-tetrahydroquinolin-4-yl]oxy}propyl]-2′,3′-dihydrospiro[cyclohexane-1,1′-indene]-4-carboxylic acid], the Ki in experiment [1] came to 1.15 nM. Further, the IC50 in experiment [2] (Homo sapiens, NCI-H929, 48 h) amounted to 115 nM.

Consider `O=C(O)[C@]1(Nc2cccc(Cl)c2)CC[C@@]2(CC1)c1ccccc1CC2CC(COc1ccnc2c1CCC2)COc1ccnc2c1CCC2` (single isomer, unassigned) [Example 498, (1r,4r)-4-(3-chloroanilino)-2′-(3-[(6,7-dihydro-5H-cyclopenta[b]pyridin-4-yl)oxy]-2-{[(6,7-dihydro-5H-cyclopenta[b]pyridin-4-yl)oxy]methyl}propyl)-2′,3′-dihydrospiro[cyclohexane-1,1′-indene]-4-carboxylic acid], for which the Ki in experiment [1] was 0.769 nM. For the same molecule, the IC50 in experiment [2] amounted to 436 nM.

On to `CO[C@H]1CCCc2nccc(OC[C@H](C)C[C@H]3Cc4ccccc4[C@]34CC[C@@](Nc3cccc(Cl)c3)(C(=O)O)CC4)c21` [Example 671, (1r,2′S,4S)-4-(3-chloroanilino)-2′-[(2R)-3-{[(5S)-5-methoxy-5,6,7,8-tetrahydroquinolin-4-yl]oxy}-2-methylpropyl]-2′,3′-dihydrospiro[cyclohexane-1,1′-indene]-4-carboxylic acid], for which the Ki in experiment [1] came out at 39.3 nM. In experiment [2] (Homo sapiens, NCI-H929, 48 h), the IC50 is 2560 nM.

For the molecule `C[C@@H](COc1ccnc2c1[C@H](C)CCC2)CC1=Cc2c(Cl)c(F)ccc2[C@]12CC[C@@](Nc1cccc(Cl)c1)(C(=O)O)CC2` [Example 745, (1r,4R)-4′-chloro-4-(3-chloroanilino)-5′-fluoro-2′-[(2R)-2-methyl-3-{[(5R)-5-methyl-5,6,7,8-tetrahydroquinolin-4-yl]oxy}propyl]spiro[cyclohexane-1,1′-indene]-4-carboxylic acid], the Ki in experiment [1] was determined as 1.58 nM. The IC50 in experiment [2] (Homo sapiens, NCI-H929, 48 h) is 66.4 nM.

With `C[C@@H](COc1ccnc2c1[C@@H](C)CCC2)C[C@H]1Cc2ccc(O)cc2[C@]12CC[C@@](Nc1cccc(Cl)c1)(C(=O)O)CC2` [Example 780, (1r,2′S,4S)-4-(3-chloroanilino)-6′-hydroxy-2′-[(2R)-2-methyl-3-{[(5S)-5-methyl-5,6,7,8-tetrahydroquinolin-4-yl]oxy}propyl]-2′,3′-dihydrospiro[cyclohexane-1,1′-indene]-4-carboxylic acid], the Ki in experiment [1] was determined as 8.89 nM. The IC50 in experiment [2] (Homo sapiens, NCI-H929, 48 h) came out at 641 nM.

In the case of `C[C@@H](COc1ccnc2ccsc12)CC1=Cc2ccccc2[C@]12CC[C@@](Nc1cccc(Cl)c1)(C(=O)O)CC2` [Example 589, (1r,4R)-4-(3-chloroanilino)-2′-{(2R)-2-methyl-3-[(thieno[3,2-b]pyridin-7-yl)oxy]propyl}spiro[cyclohexane-1,1′-indene]-4-carboxylic acid], in experiment [1], the Ki is 8.39 nM. In addition, in experiment [2] (Homo sapiens, NCI-H929, 48 h), the IC50 was 694 nM.

For `C[C@@H](COc1ccnc2c1CCC[C@@H]2F)C[C@H]1Cc2ccccc2[C@]12CC[C@@](Nc1cccc(Cl)c1)(C(=O)O)CC2` [Example 680, (1r,2′S,4S)-4-(3-chloroanilino)-2′-[(2R)-3-{[(8S)-8-fluoro-5,6,7,8-tetrahydroquinolin-4-yl]oxy}-2-methylpropyl]-2′,3′-dihydrospiro[cyclohexane-1,1′-indene]-4-carboxylic acid], in experiment [1], the Ki turned out to be 2.09 nM. Further, in experiment [2] (Homo sapiens, NCI-H929, 48 h), the IC50 came out at 687 nM.

As to `C[C@@H](COc1ccnc2c1[C@H]1CCC[C@H]1C2)C[C@H]1Cc2ccccc2[C@]12CC[C@@](Nc1cccc(Cl)c1)(C(=O)O)CC2` (single isomer, unassigned) [Example 620, (1r,2′S,4S)-4-(3-chloroanilino)-2′-[(2R)-3-{[(4bR*,7aR*)-4b,5,6,7,7a,8-hexahydropentaleno[2,1-b]pyridin-4-yl]oxy}-2-methylpropyl]-2′,3′-dihydrospiro[cyclohexane-1,1′-indene]-4-carboxylic acid], in experiment [1], the Ki was 12.7 nM. In experiment [2], the IC50 was 889 nM.

For the molecule `CC(C)(COc1ccnc2sccc12)CC1Cc2ccccc2C12CCC(Nc1cccc(Cl)c1)(C(=O)O)CC2` (single isomer, unassigned) [Example 623, (1r,4r)-4-(3-chloroanilino)-2′-{2,2-dimethyl-3-[(thieno[2,3-b]pyridin-4-yl)oxy]propyl}-2′,3′-dihydrospiro[cyclohexane-1,1′-indene]-4-carboxylic acid], in experiment [1], the Ki stood at 2320 nM. The IC50 in experiment [2] is 30000 nM.

Usually Ki stands for a dissociation constant, usually derived from enzyme kinetics or from competition with a known ligand.
